The record followed here is ChEMBL document CHEMBL3817751, “Exploitation of a Novel Binding Pocket in Human Lipoprotein-Associated Phospholipase A2 (Lp-PLA2) Discovered through X-ray Fragment Screening” (J Med Chem, 2016).

In data set [1] the target is T1, Platelet-activating factor acetylhydrolase (Homo sapiens, UniProt Q13093).
T1 sequence (Q13093 whole entry): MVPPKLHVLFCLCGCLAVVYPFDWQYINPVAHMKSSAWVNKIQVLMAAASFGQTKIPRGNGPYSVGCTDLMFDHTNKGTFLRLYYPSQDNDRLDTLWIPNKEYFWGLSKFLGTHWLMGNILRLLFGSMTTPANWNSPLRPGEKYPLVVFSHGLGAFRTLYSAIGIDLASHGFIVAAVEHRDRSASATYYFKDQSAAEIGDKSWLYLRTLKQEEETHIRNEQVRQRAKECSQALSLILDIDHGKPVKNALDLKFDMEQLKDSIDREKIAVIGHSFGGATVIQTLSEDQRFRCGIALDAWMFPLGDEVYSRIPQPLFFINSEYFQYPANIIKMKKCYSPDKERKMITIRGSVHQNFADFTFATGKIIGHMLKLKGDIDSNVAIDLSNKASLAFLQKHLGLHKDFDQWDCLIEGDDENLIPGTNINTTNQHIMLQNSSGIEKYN
Briefly: Inhibition of human recombinant Lp-PLA2 using PED6 as substrate preincubated for 30 mins followed by substrate addition measured for 20 mins by fluorescence assay.

Data set [2] concerns the target T1, Platelet-activating factor acetylhydrolase. Briefly: Binding affinity to N-terminal His6-tagged Lp-PLA2 (47 to 429 residues) (unknown origin) expressed in sf21 insect cells by ITC assay. For orientation: Isothermal titration calorimetry measures the heat released or taken up as one component is titrated into another.
The nature of data set [3]: Inhibition of human recombinant PLA2-7B using 2-thio-PAF as substrate after 20 mins by CPM-based fluorescence assay.
For data set [4], the target named is T1, Platelet-activating factor acetylhydrolase. Briefly: Inhibition of human recombinant Lp-PLA2 using 2-thio-PAF as substrate after 20 mins by CPM-based fluorescence assay.
For data set [5] the target is unchanged. Description: Inhibition of Lp-PLA2 in human whole plasma using 2-thio-PAF as substrate preincubated for 15 mins followed by substrate addition measured after 3 mins by CPM-based fluorescence assay. The format is cell-free.
Another data set is filed under the species Homo sapiens. Description: Selectivity ratio of IC50 for human recombinant PLA2-7B to IC50 for human recombinant Lp-PLA2.
Data set [6] can be described thus: Solubility of the compound in pH 7.4 phosphate buffered saline after 1 hr by chemiluminescent nitrogen detection assay. The data set is classed as physicochemical.
The nature of data set [7]: Binding affinity to human serum albumin/alpha-1 acidglycoprotein after 6 mins by HPLC method. The following applies: human serum albumin/alpha-1 acid glycoprotein, read-out: PB (converted). The format is ADME.
The nature of data set [8]: Apparent permeability of the compound after 3 hrs by HPLC-UV method. The conditions noted are these: not told. The data set is classed as physicochemical.
A short description of data set [9]: Lipophilicity, log D of the compound at pH 7.4 by reversed phase HPLC method. The following applies: buffer. The data set is classed as physicochemical.

Each structure is given as a SMILES string. Converted amounts (≈) assume the structure as drawn.

In general, IC50 refers to the point on the concentration scale where inhibition reaches its midpoint. Regarding `CC1(C)NC(=O)NC1=O`, in [1], the 50% inhibitory concentration (IC50) is above 1000 µM.

One may read the Kd as the equilibrium constant for the complex coming apart. A lower Kd goes with higher affinity. In data set [2], `O=C(c1cccc(F)c1)N1CC=CC1` registered an equilibrium dissociation constant (Kd) of 980 µM. The half-inhibitory concentration (IC50) in [1] stood at 500 µM.

With `Cc1ccccc1-c1cc(Nc2nccs2)ccc1C`, the IC50 in [3] is 11 µM; in [4], 1.7 µM.

Take `Cc1ccccc1-c1cc(C(=O)N2CC=CC2)ccc1C`: the half-inhibitory concentration (IC50) was determined as 89 µM in data set [3] and 0.23 µM in data set [4].

Take `Cc1ccccc1-c1cc(C(=O)N2CCCC2)ccc1C`: the values for the IC50 in [3] and in data set [4] were above 100 µM and 30 µM, respectively.

Regarding `Cc1ccc(N)cc1-c1ccccc1Cl`, the IC50 in data set [3] amounted to 43 µM; in [4] it was 100 µM; in data set [1], 100 µM.

With `Cc1ccccc1-c1cc(Nc2nc(CCCO)cs2)ccc1C`, the results for the IC50 in data set [3], in data set [4] and in data set [5] were above 10 µM, 0.23 µM and 7.1 µM, respectively. In addition, the Ratio IC50 in the data set filed under Homo sapiens is above 40.

Consider `Cc1ccccc1-c1cc(C(=O)c2nccs2)ccc1C`, for which the concentration for half-maximal inhibition (IC50) in data set [3] was 3.2 µM; in data set [4], 2 µM.

`CC(C)COc1cc(=O)n(C)c(=O)n1C`: the IC50 in [1] was 1000 µM.

On to `Cc1ccc(C(=O)N2CC=CC2)cc1-c1ccccc1Cl`, for which the IC50 in data set [3] is above 10 µM; in [4] it was 0.18 µM.

By solubility is commonly meant the concentration that dissolves in the medium under given conditions. One may read the Papp as the rate of passage across a membrane or cell layer, normalised by area and donor concentration. A word on the chromatographic logD: it is a lipophilicity value derived from retention on a column. Higher therefore signals higher lipophilicity. Turning to `COC(CO)Cc1csc(Nc2cc(-c3ccccc3C)c(C)cc2OCCN)n1` (racemic), the results for the concentration for half-maximal inhibition (IC50) in data set [3], in data set [4] and in data set [5] were above 10 µM, 0.0024 µM and 0.028 µM, respectively. The molecule also displayed a solubility at 1 h in data set [6] of 195 µM (≈ 83.4 µg/mL). The fraction unbound at 0.1 h in [7] is 0.03. Besides, the Papp at 3 h in [8] turned out to be 21 ×10⁻⁶ cm/s. Besides, the chromatographic logD in data set [9] is 3.4.

For `COC(CO)Cn1ccc(Nc2cc(-c3ccccc3C)c(C)cc2OCCN)n1` (racemic), the IC50 is above 1 µM in [3], 0.0014 µM in [4] and 0.018 µM in data set [5]. In data set [6], this molecule came in with a solubility at 1 h of 302 µM (≈ 124 µg/mL). In data set [7], the fraction unbound at 0.1 h was 0.05. For the same molecule, in data set [8], the apparent permeability coefficient (Papp) at 3 h is 13 ×10⁻⁶ cm/s. Further, the chromatographic logD in data set [9] is 3.2.

In the case of `COC(CO)Cc1csc(Nc2ccc(C)c(-c3ccccc3C)c2)n1` (racemic), the IC50 in data set [3] is above 10 µM; in [4] it was 0.0095 µM; in data set [5] it was 0.56 µM. Further, the Ratio IC50 in the data set listed under Homo sapiens was above 1000.

Turning to `COc1cc(C)c(-c2ccccc2C)cc1Nc1nc(CC(CO)OC)cs1` (racemic), the IC50 came to 6.1 µM in data set [3], 0.0036 µM in [4] and 0.32 µM in data set [5].

For the molecule `NS(=O)(=O)c1ccccc1` [BENZENESULFONAMIDE], in [2], the Kd was 3400 µM. For the same molecule, the half-maximal inhibitory concentration (IC50) in [1] is above 1000 µM.

Consider `CCN(CC)CCN(Cc1ccc(-c2ccc(C(F)(F)F)cc2)cc1)C(=O)Cn1c(SCc2ccc(F)cc2)nc(=O)c2c1CCC2` [DARAPLADIB], for which, in data set [3], the IC50 was 0.063 µM. For the same molecule, the concentration in solution in data set [6] (solubility at 1 h) was 8 µM (≈ 5.33 µg/mL). For the same molecule, in [7], the fraction unbound at 0.1 h was 0.02. Besides, in [8], the apparent permeability coefficient (Papp) at 3 h turned out to be 23 ×10⁻⁶ cm/s. In addition, in [9], the chromatographic logD was determined as 6.2.
